Reference: ChEMBL document CHEMBL5120920, “A Mitochondria-Targeted Phenylbutyric Acid Prodrug Confers Drastically Improved Anticancer Activities” (J Med Chem, 2022)

Legend:
Assay type in all cases: functional, cell-based
[1] = tested on: MDA-MB-231; assay: Antiproliferative activity against human MDA-MB-231 cells assessed as inhibition of cell viability incubated for 72 hrs by MTT assay; conditions: MDA-MB-231, 72 h
[2] = tested on: MCF7; assay: Antiproliferative activity against human MCF7 cells assessed as inhibition of cell viability incubated for 72 hrs by MTT assay; conditions: MCF7, 72 h
[3] = tested on: A-375; assay: Antiproliferative activity against human A-375 cells assessed as inhibition of cell viability incubated for 72 hrs by MTT assay; conditions: A-375, 72 h
[4] = tested on: A549; assay: Antiproliferative activity against human A549 cells assessed as inhibition of cell viability incubated for 72 hrs by MTT assay; conditions: A549, 72 h

Row | SMILES | IC50 [1] | IC50 [2] | IC50 [3] | IC50 [4]
1 | O=C(O)CCCCCCCCC[P+](c1ccc(F)cc1)(c1ccc(F)cc1)c1ccc(F)cc1 | > 20 µM | > 20 µM | > 20 µM | > 20 µM
2 | COC(=O)CCCc1ccccc1 |  |  | > 2000 µM | 
3 | O=C(O)CCC[P+](c1ccccc1)(c1ccccc1)c1ccccc1 | > 20 µM | > 20 µM | > 20 µM | > 20 µM
4 | O=C(O)CCCCCCCCCCC[P+](c1ccccc1)(c1ccccc1)c1ccccc1 | > 20 µM | > 20 µM | > 20 µM | > 20 µM
5 | O=C(CCCc1ccccc1)NCC(CNC(=O)CCCc1ccccc1)(CNC(=O)CCCc1ccccc1)NC(=O)CC[P+](c1ccccc1)(c1ccccc1)c1ccccc1 | 9.64 µM | 3.34 µM | 5.05 µM | 5.3 µM
6 | O=C(O)CCCCC[P+](c1ccccc1)(c1ccccc1)c1ccccc1 | > 20 µM | > 20 µM | > 20 µM | > 20 µM
7 | O=C(CCC[P+](c1ccccc1)(c1ccccc1)c1ccccc1)NC(COC(=O)CCCc1ccccc1)(COC(=O)CCCc1ccccc1)COC(=O)CCCc1ccccc1 | 1.28 µM | 0.62 µM | 1.29 µM | 0.65 µM
8 | O=C(CCCc1ccccc1)NCC(CNC(=O)CCCc1ccccc1)(CNC(=O)CCCc1ccccc1)NC(=O)CCCCC[P+](c1ccccc1)(c1ccccc1)c1ccccc1 | 3.62 µM | 2.46 µM | 3.26 µM | 7.7 µM
9 | O=C(CCCc1ccccc1)NCC(CNC(=O)CCCc1ccccc1)(CNC(=O)CCCc1ccccc1)NC(=O)CCC[P+](c1ccccc1)(c1ccccc1)c1ccccc1 | 9.27 µM | 2.72 µM | 4.56 µM | 624 µM
10 | COc1cccc([P+](CCCCCCCCCC(=O)O)(c2cccc(OC)c2)c2cccc(OC)c2)c1 | > 20 µM | > 20 µM | > 20 µM | > 20 µM
11 | N#Cc1ccc([P+](CCCCCCCCCC(=O)O)(c2ccc(C#N)cc2)c2ccc(C#N)cc2)cc1 | > 20 µM | > 20 µM | > 20 µM | > 20 µM
12 | O=C(CC[P+](c1ccccc1)(c1ccccc1)c1ccccc1)NC(COC(=O)CCCc1ccccc1)(COC(=O)CCCc1ccccc1)COC(=O)CCCc1ccccc1 | 2.59 µM | 0.97 µM | 1.75 µM | 1.01 µM
13 | O=C(CCCC[P+](c1ccccc1)(c1ccccc1)c1ccccc1)NC(COC(=O)CCCc1ccccc1)(COC(=O)CCCc1ccccc1)COC(=O)CCCc1ccccc1 | 1.57 µM | 0.64 µM | 2.79 µM | 1.03 µM
14 | N#Cc1ccc([P+](CCCCCCCCCC(=O)NC(CNC(=O)CCCc2ccccc2)(CNC(=O)CCCc2ccccc2)CNC(=O)CCCc2ccccc2)(c2ccc(C#N)cc2)c2ccc(C#N)cc2)cc1 | 3.96 µM | 8.56 µM | > 10 µM | 4.06 µM
15 | Cc1ccc([P+](CCCCCCCCCC(=O)NC(CNC(=O)CCCc2ccccc2)(CNC(=O)CCCc2ccccc2)CNC(=O)CCCc2ccccc2)(c2ccc(C)cc2)c2ccc(C)cc2)cc1 | 0.44 µM | 0.5 µM | 0.62 µM | 0.73 µM
16 | O=C(CCCc1ccccc1)NCC(CNC(=O)CCCc1ccccc1)(CNC(=O)CCCc1ccccc1)NC(=O)CCCCCCCCC[P+](c1ccccc1)(c1ccccc1)c1ccccc1 | 0.31 µM | 0.54 µM | 0.42 µM | 0.81 µM
17 | O=C(CCCc1ccccc1)NCC(CNC(=O)CCCc1ccccc1)(CNC(=O)CCCc1ccccc1)NC(=O)CCCCCCCCC[P+](c1ccc(F)cc1)(c1ccc(F)cc1)c1ccc(F)cc1 | 1.28 µM | 2.26 µM | 1.29 µM | 2.19 µM
18 | CCOC(=O)CCCc1ccccc1 |  |  | > 2000 µM | 
19 | O=C(O)CCCCCCC[P+](c1ccccc1)(c1ccccc1)c1ccccc1 | > 20 µM | > 20 µM | > 20 µM | > 20 µM
